These results are taken from patent US11629139B2 (priority 2017, dated 2023).

The conditions of data set [1]: mouse, in vivo.
The conditions of data set [2]: pH 7.4.
The conditions of data set [3]: plasma.
Data set [4] deals with vesicular stomatitis virus particles (VSV) pseudotyped with EboV Zaire GP. The note with it: cited from earlier work.
Data set [5] has the same test system. As to the kind of experiment: microbe, parasite or virus in culture. The class given is cell-based.
The nature of data set [6]: in vitro. The note with it: mouse, microsomes.
A short description of a further data set: physchem. The note with it: pH 7.4, aqueous buffer, kinetic from dmso stock.
Another data set in a line: in vivo. Particulars: mouse, po, 25 mg/kg.
Experiment in data set [7]: not given
This is another data set of the same source.

Another data set concerns EBOV Makona. The data set is described as follows: microbe, parasite or virus in culture. The note with it: Zaire ebolavirus, HeLa, read-out: EBOV Makona (Hela) EC50. Type of data set: cell-based, Ebola virus.
Data set [8] can be described thus: in vitro. The note with it: mouse, plasma.
The subject of a further data set is Ebola virus (Mayinga). As to the kind of experiment: microbe, parasite or virus in culture. Type of data set: cell-based. Particulars: Zaire ebolavirus, HeLa, read-out: EBOV Maiynga) (Hela) EC50.
The test system of another data set is EBOV Kikwit. As to the kind of experiment: microbe, parasite or virus in culture. The note with it: Zaire ebolavirus, HeLa, read-out: EBOV Kikwit(Hela) EC50. Type of data set: cell-based, Ebola virus.

For orientation: Cmax means the maximum level reached in the sampled fluid or tissue. The Tmax is the time at which the peak concentration occurs. For orientation: IC50 means the midpoint of a concentration-inhibition curve. Usually half-life stands for how long it takes for the measured level to halve. A word on the kinetic solubility: it is the concentration staying in solution when a stock, usually in DMSO, is diluted into the medium. The EC50 is the midpoint of the concentration-response curve. As a reminder, the fraction unbound is the share of the substance not bound to proteins or other matrix. A higher fraction unbound goes with much free substance.

In brackets after ≈: the same amount, converted by molar mass. Like-named read-outs stand apart in the source and are kept apart here.

In the case of `CS(=O)(=O)c1ccc(COc2ccc(Cl)cc2CN2CCN(C(=O)CNC(=O)C3CC34CCC(F)(F)CC4)CC2)cc1` (racemic) [(racemic)-1476], the “Concentration required to reduce cell viability by 50%” value in the data set with cell viability is listed as “exceeded 10 μM”.

On to `[2H]C([2H])(c1cc(Cl)ccc1NCc1ccc(S(C)(=O)=O)cc1)N1CCN(C(=O)CNC(=O)C2CC23CCC(F)(F)CC3)CC1` (racemic) [(racemic)-1503], for which the “Concentration required to reduce cell viability by 50%” value with cell viability is “exceeded 10 μM”.

`Nc1ccc(Cl)cc1CN1CCN(C(=O)CNC(=O)C2CC23CCC(F)(F)CC3)CC1` (single isomer, unassigned; (-)) [(−)-1413] displayed a Cmax in data set [1] (po, 50 mg/kg) of 19.5 µM.

The molecule `CS(=O)(=O)c1ccc(COc2ccc(Cl)cc2CN2CCN(C(=O)CNC(=O)C3CC34CCC(F)(F)CC4)CC2)cc1` (single isomer, unassigned; (-)) [(−)-1476] returned a Kinetic solubility in data set [2] of 10 µM. In data set [1], the “C@12 hr” value stood at 4.7 µM, the “Cl_obs” value worked out at 11.9 mL/min/kg and the “Plasma concentration after 12 hours relative to in vitro IC50 against rVSV EBOV infection in 50% human serum” value was determined as 50 fold. Further, in data set [1] (po, 50 mg/kg), the “AUClast” value is 116.4 µM·h, the peak level (Cmax) was 10.4 µM, the “T1/2” value came to 132 min and the “Tmax” value was determined as 240 min. The “MLM, T½ (min) (ritonavir 3 μM)” value (mouse, microsomes) was more than 120 min. Besides, the “Mouse PPB (% bound)” value in data set [3] turned out to be 97.6%.

`CS(=O)(=O)c1ccc(CNc2ccc(Cl)cc2CN2CCN(C(=O)CNC(=O)C3CC34CCC(F)(F)CC4)CC2)cc1` (single isomer, unassigned; (-)) [(−)-1503] came in with a Cmax in data set [1] (po, 50 mg/kg) of 7.4 µM.

`COC(=O)c1ccc(COc2ccccc2CN2CCN(C(=O)CNC(=O)CC34CC5CC(CC(C5)C3)C4)CC2)cc1` [Compound 3.47, reference compound]: the “Potency against EboV GP-dependent infection” value in data set [4] is “increased potency”. The “Concentration required to reduce cell viability by 50%” value in the data set with cell viability is on record as “exceeded 10 μM”.

`O=C(CC12CC3(F)CC(F)(CC(F)(C3)C1)C2)NCC(=O)N1CCN(Cc2ccccc2OCc2ccc(Br)cc2)CC1` [Compound 1254] returned an IC50 in data set [5] (Vesicular stomatitis virus) of 200 nM. In the data set “in vitro [6]” (pH 7.4, MLM T½ (min)), this molecule yielded a half-life of 1 min.

In turn, `Nc1ccc(Cl)cc1CN1CCN(C(=O)CNC(=O)CC2CCC(F)(F)CC2)CC1` [Compound 1343, N-(2-(4-(2-Amino-5-chlorobenzyl)piperazin-1-yl)-2-oxoethyl)-2-(4,4-difluorocyclohexyl)acetamide] displayed an IC50 in data set [5] (Vesicular stomatitis virus) of 320 nM. Also, in [2], the “Sol” value was more than 100 mM. For the same molecule, the solubility (kinetic) in the data set “physchem” was more than 100 µM. The half-life came out at 9 min in the data set “in vitro [6]” (pH 7.4, MLM T½ (min)) and 8.7 min in “in vitro [6]” (pH 7.4, T1/2(min)). In addition, the “Mouse PPB (% bound)” value in data set [3] amounted to 86.9%.

Take `Nc1ccc(Cl)cc1CN1CCN(C(=O)CNC(=O)C2CC23CCC(F)(F)CC3)CC1` (centres unmarked) [Compound 1373, N-(2-(4-(2-Amino-5-chlorobenzyl)piperazin-1-yl)-2-oxoethyl)-6,6-difluorospiro[2.5]octane-1-carboxamide]: in data set [5] (Vesicular stomatitis virus), the midpoint of inhibition, the IC50, lay at 100 nM. Besides, the half-life in the data set “in vitro [6]” (pH 7.4, T1/2(min)) came out at 1.3 min.

The molecule `[2H]C([2H])(c1cc(Cl)ccc1N)N1CCN(C(=O)CNC(=O)CC2CCC(F)(F)CC2)CC1` [Compound 1412, N-(2-(4-((2-amino-5-chlorophenyl)methyl-d2)piperazin-1-yl)-2-oxoethyl)-2-(4,4-difluorocyclohexyl)acetamide] yielded an IC50 in data set [5] of 68 nM. Moreover, the IC50 in data set [5] (Vesicular stomatitis virus) was 130 nM. Moreover, in [2], the Kinetic solubility worked out at 93 µM and the “Sol” value is listed as more than 100 mM. Also, in data set [1], the “C@12 hr” value was found to be 1.7 µM and the “Cl_obs” value was 12.3 mL/min/kg. Besides, in data set [1] (po), the “Decrease of the clearance by co-administration of ritonavir” value is listed as approximately 4 fold and the “Increase of the AUC by co-administration of ritonavir” value is given as approximately 4 fold. Also, in data set [1] (po, 25 mg/kg), the “C@12 hr” value turned out to be 0.2 µM, the “Cl_obs” value stood at 49.0 mL/min/kg, the peak level (Cmax) was 7.2 µM and the “T1/2” value worked out at 138 min. Further, the solubility (kinetic) in “physchem” is more than 100 µM. The same molecule had a Cmax in “in vivo” of 12 µM. Where the note is “mouse, microsomes”, the “Effect of CYP3A4 inhibition on T1/2 (FIG. 9)” value was “improves”. The “T1/2 (min)” value (mouse, microsomes, pH 7.4) is reported as 1.4/144 min. The “Increase of stability in mouse liver microsomes by ritonavir” value (pH 7.4) was 10- to 30 fold. Also, in “in vitro [6]” (pH 7.4, Microsome T1/2), the half-life was 8.7 to 13 min. Also, in “in vitro [6]” (pH 7.4, T1/2(min)), the half-life was 13 min. Also, the half-life in the data set “in vitro [6]” (pH 7.4, T1/2 + ritonavir (min)) came to 144 min.

Take `[2H]C([2H])(c1cc(Cl)ccc1N)N1CCN(C(=O)CNC(=O)C2CC23CCC(F)(F)CC3)CC1` (centres unmarked) [Compound 1413, N-(2-(4-((2-amino-5-chlorophenyl)methyl-d2)piperazin-1-yl)-2-oxoethyl)-6,6-difluorospiro[2.5]octane-1-carboxamide]: the IC50 in data set [5] amounted to 130 nM; in data set [5] (Vesicular stomatitis virus), 68 nM. The same molecule had a kinetic solubility in “physchem” of more than 100 µM. The “T1/2 (min)” value (mouse, microsomes, pH 7.4) is recorded as 13/215 min. Moreover, the half-life in the data set “in vitro [6]” (pH 7.4, Microsome T1/2) is 1.4 to 2 min; in the data set “in vitro [6]” (pH 7.4, T1/2(min)), 2 min; in “in vitro [6]” (pH 7.4, T1/2 + ritonavir (min)), 215 min.

As for `CS(=O)(=O)c1ccc(COc2ccc(Cl)cc2CN2CCN(C(=O)CNC(=O)CC3CCC(F)(F)CC3)CC2)cc1` [Compound 1458], 9 nM corresponded to half-maximal inhibition in data set [5] (Vesicular stomatitis virus) (IC50). Further, in data set [7], the “Mouse plasma stability (% at 4 hours)” value was 30%. Besides, the “MLM, T½ (min) (ritonavir 3 μM)” value (mouse, microsomes, pH 7.4) is on record as more than 120 min.

As for `CS(=O)(=O)c1ccc(CNc2ccc(Cl)cc2CN2CCN(C(=O)CNC(=O)CC3CCC(F)(F)CC3)CC2)cc1` [Compound 1477], the EC50 in the data set on EBOV Makona is 52 nM; in the data set with Ebola virus (Mayinga), 33 nM; in the data set on EBOV Kikwit, 12 nM. Besides, in “in vitro [8]” (m-plasma protein binding), the fraction unbound turned out to be 0.001. For the same molecule, the “Concentration required to reduce cell viability by 50%” value in the data set on cell viability is “exceeded 10 μM”. Moreover, the “m-μsome T1/2 (with 3 μM of Ritonavir)” value (mouse, microsomes, pH 7.4) is 90 min.

As to `CS(=O)(=O)c1ccc(CNc2ccc(Cl)cc2CN2CCN(C(=O)CNC(=O)C3CC34CCC(F)(F)CC4)CC2)cc1` (centres unmarked) [Compound 1478], the EC50 with EBOV Makona was determined as 17 nM; with Ebola virus (Mayinga) it was 35 nM; in the data set on EBOV Kikwit, 9 nM. The unbound share (fraction unbound) in the data set “in vitro [8]” (m-plasma protein binding) turned out to be 0.001. In addition, the “m-μsome T1/2 (with 3 μM of Ritonavir)” value (mouse, microsomes, pH 7.4) is recorded as 128 min.

Molecule `N#Cc1ccc(COc2ccc(Cl)cc2CN2CCN(C(=O)CNC(=O)C3CC34CCC(F)(F)CC4)CC2)nc1` (centres unmarked) [Compound 1622, 6,6-Difluoro-spiro[2.5]octane-1-carboxylic acid (2-{4-[5-chloro-2-(5-cyano-pyridin-2-ylmethoxy)-benzyl]-piperazin-1-yl)-2-oxo-ethyl)-amide] had an IC50 in [5] (Vesicular stomatitis virus) of 19 nM.

In data set [5] (Vesicular stomatitis virus), `CNC(=O)c1ccc(COc2ccccc2CN2CCN(C(=O)CNC(=O)CC34CC5CC(CC(C5)C3)C4)CC2)cc1` [Compound 1801] came in with an IC50 of 2100 nM.

`CN(C)C(=O)c1ccc(COc2ccccc2CN2CCN(C(=O)CNC(=O)CC34CC5CC(CC(C5)C3)C4)CC2)cc1` [Compound 1802]: the midpoint of inhibition in data set [5] (Vesicular stomatitis virus), the IC50, lay at 3300 nM.

In [5] (Vesicular stomatitis virus), `O=C(CC12CC3CC(CC(C3)C1)C2)NCC(=O)N1CCN(Cc2ccccc2OCc2ccc(-c3ncco3)cc2)CC1` [Compound 1803, 2-((3r,5r,7r)-Adamantan-1-yl)-N-(2-(4-(2-((4-(oxazol-2-yl)benzyl)oxy)benzyl)piperazin-1-yl)-2-oxoethyl)acetamide] came in with an IC50 of 270 nM. Also, the fraction unbound in the data set “in vitro [8]” (Mouse PPB (% bound)) was 0.003. Moreover, the kinetic solubility in the data set “physchem” is 5 µM (≈ 2.91 µg/mL). Besides, the “Mouse plasma stability (% at 4 hours)” value in data set [7] is given as 37%. In addition, the half-life in the data set “in vitro [6]” (pH 7.4, MLM T½ (min)) was found to be 1 min.

In [5] (Vesicular stomatitis virus), `NC(=O)c1ccc(Cl)cc1CN1CCN(C(=O)CNC(=O)CC23CC4CC(CC(C4)C2)C3)CC1` [Compound 1804] displayed an IC50 of 1900 nM.

For the molecule `O=C(CNC(=O)C12CC3CC(C1)CC(c1ccc(O)c([N+](=O)[O-])c1)(C3)C2)N1CCN(Cc2ccccc2OCc2ccc(Br)cc2)CC1` [Compound 1805, (1s,3r,5R,7S)—N-(2-(4-(2-((4-bromobenzyl)oxy)benzyl)piperazin-1-yl)-2-oxoethyl)-3-(4-hydroxy-3-nitrophenyl)adamantane-1-carboxamide], in [5] (Vesicular stomatitis virus), the IC50 was 600 nM.

`Nc1ccc(Cl)cc1CN1CCN(C(=O)CNC(=O)C2CC23CCCC3)CC1` (centres unmarked) [Compound 1806, N-(2-(4-(2-Amino-5-chlorobenzyl)piperazin-1-yl)-2-oxoethyl)spiro[2.4]heptane-1-carboxamide]: the IC50 in data set [5] (Vesicular stomatitis virus) was determined as 240 nM.

In the case of `Nc1ccc(Cl)cc1CN1CCN(C(=O)CNC(=O)C2CC23CCC3)CC1` (centres unmarked) [Compound 1807, N-(2-(4-(2-Amino-5-chlorobenzyl)piperazin-1-yl)-2-oxoethyl)spiro[2.3]hexane-1-carboxamide], the concentration for half-maximal inhibition (IC50) in [5] (Vesicular stomatitis virus) stood at 2500 nM.

On to `CC(C)c1nc(CN(C)C(=O)N[C@H](C(=O)N[C@@H](Cc2ccccc2)C[C@H](O)[C@H](Cc2ccccc2)NC(=O)OCc2cncs2)C(C)C)cs1` [Ritonavir, reference compound], for which the IC50 in [5] (Vesicular stomatitis virus, read-out: IC50, VSV EBOV infection) was more than 25000 nM.
